Laboratory results taken from US6471948B1 (Church & Dwight Co. Inc., priority 2000, dated 2002).

Experiment: Cetylpyridinium chloride adsorption on mucin-coated hydroxyapatite disks, HPLC of extract
Assay type: physicochemical
Settings: for % Activity: relative to no surfactant
Description: Disks of hydroxyapatite (HAP) measuring 0.5 inch diameter and 0.04 inch thick were obtained from Clarkson Chromatography Products (Williamsport, Penn.). The disks were hydrated in deionized water for one hour and then allowed to air dry.
A 1% dispersion of bovine submaxillary mucin (type 1S, from Sigma) was then prepared. The HAP disks were then soaked in the 1% mucin dispersion overnight. The disks were then allowed to air dry for al least 2 hours. These disks, composed of HAP on which was deposited a layer of mucin, represented an oral surface.
The disks were soaked in 5 ml of the test solution for 10 minutes in a polystyrene petri dish (35 mm diameter×10 mm deep, from Becton Dickinson). The disks were then removed, rinsed for 3 seconds with deionized water on each side with a wash bottle.
The extractant solution is composed of 60 parts of a 20 mM phosphate buffer and 40 parts methanol, in which is dissolved 30 mM cetyltrimethylammonium bromide. The disks were soaked in 5 ml of the extractant solution for 2 hours.

[1] = Example 2: test solution as Example 1, also 0.125% by weight sodium bicarbonate
[2] = Example 1: test solution 0.125% cetylpyridinium chloride + 0.9% surfactant, disks soaked 10 minutes
[3] = Example 1: test solution 0.125% cetylpyridinium chloride + 0.9% surfactant

Row | CPC adsorbed [1] [μg/disk] | CPC adsorbed [2] [μg/disk] | cetylpyridinium chloride absorbed (in words) (Example 1 test solutions) | Compound | % Activity [1] [%] | % Activity [3] [%]
1 | 47.4 |  |  | CCCCCCCC[NH2+][O-] [Octylamine oxide] | 76.0 | 
2 | 10.6 |  |  | Dodecyl-Amphodiacetate | 17.0 | 
3 |  | 8.0 |  | Cocoamphodiacetate |  | 13.5
4 | 48.8 |  |  | Cocobetaine | 78.2 | 
5 | 7.4 |  |  | Dodecyl-Iminodipropionate | 11.9 | 
6 | 41.2 | 41.8 | clearly superior | Cocamidopropyl betaine | 66.0 | 70.4
7 | 39.1 |  |  | CCCCCCCCCC[NH2+][O-] [Decylamine oxide] | 62.7 | 
